Experiments:
HiBiT-tagged BCL-xL = molecular target: T1, HiBiT-tagged BCL-xL (Homo sapiens, UniProt Q07817); test: NCI-H1650 BCL-xL protein levels, Nano-Glo HiBiT Lytic Detection; format: cell-based; conditions: NCI-H1650 expressing HiBiT-tagged BCL-xL, overnight incubation, read-out: Bcl-xl HIBIT NCIH1650 DC50
T1 construct: expressed in transfected cells; host or cells: NCI-H1650 (ATCC No. CRL-5883), engineered HiBiT cell line
In short: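 HiBiT luminescence after cell lysis with LgBiT/furimazine reagent reported BCL-xL levels, expressed relative to untreated wells and fitted with a four-parameter logistic equation. Engineered NCI-H1650 cells were exposed overnight at 37° C to compound at final 0.508 nM-10 μM (10 points, triplicate plates).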

[1] = test system: EBC-1 lung cancer cell line; test: EBC-1 cell proliferation, CellTiter-Glo assay; format: cell-based; conditions: Homo sapiens, 120 h; Ebc-1 cell viability, CTG assay, 5 days of treatment; read-out: CTG 5 day Ebc1 GI50
In short: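 CellTiter-Glo read-out after 5-day compound treatment, normalised to untreated cells, with GI50 derived by four-parameter logistic regression. Ten concentrations spanning 0.508 nM–10 μM were added to 1000 EBC-1 cells per well the day after seeding. Assays required at least one cell doubling versus Day 0.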

T1 sequence (Q07817 whole entry): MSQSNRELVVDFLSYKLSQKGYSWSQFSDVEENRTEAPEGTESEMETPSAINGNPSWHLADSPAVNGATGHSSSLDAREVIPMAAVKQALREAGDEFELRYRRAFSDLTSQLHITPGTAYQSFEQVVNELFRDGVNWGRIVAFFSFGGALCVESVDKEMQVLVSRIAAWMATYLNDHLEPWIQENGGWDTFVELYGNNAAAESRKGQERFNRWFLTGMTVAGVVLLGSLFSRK

Row | SMILES | DC50 (HiBiT-tagged BCL-xL) | GI50 [1]
1 | Cc1ncsc1-c1ccc(CNC(=O)C2C[C@@H](O)CN2C(=O)C(NC(=O)CCCCCC(=O)N2CCN(CC#Cc3ccc(OCCCc4sc(N5CCCc6c5nnc(Nc5nc7ccccc7s5)c6C)nc4C(=O)O)c(F)c3)CC2)C(C)(C)C)cc1 (stereo in doubt) [Example 15, 2-[3-(1,3-benzothiazol-2-ylamino)-4-methyl-6,7-dihydro-5H-pyrido[2,3-c]pyridazin-8-yl]-5-[3-[2-fluoro-4-[3-[4-[7-[[(1S)-1-[(2S,4R)-4-hydroxy-2-[[4-(4-methylthiazol-5-yl)phenyl]methylcarbamoyl]pyrrolidine-1-carbonyl]-2,2-dimethyl-propyl]amino]-7-oxo-heptanoyl]piperazin-1-yl]prop-1-ynyl]phenoxy]propyl] thiazole-4-carboxylic acid] | > 1670 nM | 21 nM
2 | Cc1ncsc1-c1ccc([C@H](C)NC(=O)C2CC(O)CN2C(=O)C(NC(=O)CCCCCCCCCCCN2CCN(CC#Cc3ccc(OCCCc4sc(N5CCCc6c5nnc(Nc5nc7ccccc7s5)c6C)nc4C(=O)O)c(F)c3)CC2)C(C)(C)C)cc1 (stereo in doubt) [Example 31, 2-[3-(1,3-benzothiazol-2-ylamino)-4-methyl-6,7-dihydro-5H-pyrido[2,3-c]pyridazin-8-yl]-5-[3-[2-fluoro-4-[3-[4-[12-[[(1S)-1-[(2S,4R)-4-hydroxy-2-[[(1S)-1-[4-(4-methylthiazol-5-yl)phenyl]ethyl]carbamoyl]pyrrolidine-1-carbonyl]-2,2-dimethyl-propyl]amino]-12-oxo-dodecyl]piperazin-1-yl]prop-1-ynyl]phenoxy]propyl] thiazole-4-carboxylic acid] | 0.4 nM | 1 nM
3 | Cc1ncsc1-c1ccc([C@H](C)NC(=O)[C@@H]2C[C@@H](O)CN2C(=O)[C@@H](NC(=O)CCCCCCCCCCCCCCCN(C)CCOC23CC4(C)CC(C)(CC(Cn5ncc(-c6ccc(N7CCCc8c7nnc(Nc7nc9ccccc9s7)c8C)nc6C(=O)O)c5C)(C4)C2)C3)C(C)(C)C)cc1 [Example 1, 6-[3-(1,3-benzothiazol-2-ylamino)-4-methyl-6,7-dihydro-5H-pyrido[2,3-c]pyridazin-8-yl]-3-[1-[[3-[2-[[16-[[(1S)-1-[(2S,4R)-4-hydroxy-2-[[(1S)-1-[4-(4-methylthiazol-5-yl)phenyl]ethyl]carbamoyl]pyrrolidine-1-carbonyl]-2,2-dimethyl-propyl]amino]-16-oxo-hexadecyl]-methyl-amino]ethoxy]-5,7-dimethyl-1-adamantyl]methyl]-5-methyl-pyrazol-4-yl]pyridine-2-carboxylic acid] | 1 nM | 5 nM
4 | Cc1ncsc1-c1ccc([C@H](C)NC(=O)[C@@H]2C[C@@H](O)CN2C(=O)[C@@H](NC(=O)CCCCCCCCN(C)CCOC23CC4(C)CC(C)(CC(Cn5ncc(-c6ccc(N7CCCc8c7nnc(Nc7nc9ccccc9s7)c8C)nc6C(=O)O)c5C)(C4)C2)C3)C(C)(C)C)cc1 [Example 5, 6-[3-(1,3-benzothiazol-2-ylamino)-4-methyl-6,7-dihydro-5H-pyrido[2,3-c]pyridazin-8-yl]-3-[1-[[3-[2-[[9-[[(1S)-1-[(2S,4R)-4-hydroxy-2-[[(1S)-1-[4-(4-methylthiazol-5-yl)phenyl]ethyl]carbamoyl]pyrrolidine-1-carbonyl]-2,2-dimethyl-propyl]amino]-9-oxo-nonyl]-methyl-amino]ethoxy]-5,7-dimethyl-1-adamantyl]methyl]-5-methyl-pyrazol-4-yl]pyridine-2-carboxylic acid] | 2 nM | 23 nM

From patent publication US20240376094A2, “SELECTIVE BCL-XL PROTAC COMPOUNDS AND METHODS OF USE” (Les Laboratoires Servier, priority 2021, published 2024)
